# Experimental data taken from ChEMBL document CHEMBL2417394, “Exquisite selectivity for human toll-like receptor 8 in substituted furo[2,3-c]quinolines” (J Med Chem, 2013).
# Calls of active or inactive are those of the source. The rule behind the calls is not given here.
# Key:
# [1] = target: T1, Toll-like receptor 8 (Homo sapiens) (UniProt Q9NR97); assay: Modulation of human TLR8 expressed in HEK293 cells co-transfected with MD2 and sAP assessed as induction of NF-kappaB activity by reporter gene assay; format: cell-based
# T1 sequence (whole entry): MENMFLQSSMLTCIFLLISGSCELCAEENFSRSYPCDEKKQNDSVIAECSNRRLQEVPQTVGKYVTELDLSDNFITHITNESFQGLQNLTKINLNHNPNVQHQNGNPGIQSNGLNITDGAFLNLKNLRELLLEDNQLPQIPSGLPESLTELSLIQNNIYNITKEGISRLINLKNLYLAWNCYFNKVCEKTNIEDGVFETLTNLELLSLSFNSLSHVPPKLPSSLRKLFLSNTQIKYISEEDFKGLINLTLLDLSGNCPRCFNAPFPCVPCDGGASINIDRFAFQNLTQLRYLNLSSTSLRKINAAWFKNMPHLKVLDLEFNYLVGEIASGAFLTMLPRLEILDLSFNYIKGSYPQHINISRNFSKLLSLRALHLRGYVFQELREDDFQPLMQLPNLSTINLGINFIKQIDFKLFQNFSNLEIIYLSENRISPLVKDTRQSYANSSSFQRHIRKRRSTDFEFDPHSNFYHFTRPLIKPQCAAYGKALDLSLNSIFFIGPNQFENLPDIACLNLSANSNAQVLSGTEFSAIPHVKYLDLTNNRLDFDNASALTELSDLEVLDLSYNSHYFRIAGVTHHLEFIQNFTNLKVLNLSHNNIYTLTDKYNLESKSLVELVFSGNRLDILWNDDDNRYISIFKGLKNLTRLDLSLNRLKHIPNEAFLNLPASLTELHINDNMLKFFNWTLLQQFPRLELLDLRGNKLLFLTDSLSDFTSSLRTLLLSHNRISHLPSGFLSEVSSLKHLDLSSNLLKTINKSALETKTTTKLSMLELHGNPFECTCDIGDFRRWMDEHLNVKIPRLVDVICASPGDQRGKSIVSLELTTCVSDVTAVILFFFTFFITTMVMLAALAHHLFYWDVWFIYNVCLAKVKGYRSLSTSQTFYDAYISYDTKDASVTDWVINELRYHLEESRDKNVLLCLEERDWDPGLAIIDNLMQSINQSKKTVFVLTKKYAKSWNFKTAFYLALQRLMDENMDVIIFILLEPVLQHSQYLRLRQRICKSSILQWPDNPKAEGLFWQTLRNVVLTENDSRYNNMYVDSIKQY
# [2] = target: T2, Toll-like receptor 7 (Homo sapiens) (UniProt Q9NYK1); assay: Modulation of human TLR7 expressed in HEK293 cells co-transfected with MD2 and sAP assessed as induction of NF-kappaB activity by reporter gene assay; format: cell-based
# T2 sequence (whole entry): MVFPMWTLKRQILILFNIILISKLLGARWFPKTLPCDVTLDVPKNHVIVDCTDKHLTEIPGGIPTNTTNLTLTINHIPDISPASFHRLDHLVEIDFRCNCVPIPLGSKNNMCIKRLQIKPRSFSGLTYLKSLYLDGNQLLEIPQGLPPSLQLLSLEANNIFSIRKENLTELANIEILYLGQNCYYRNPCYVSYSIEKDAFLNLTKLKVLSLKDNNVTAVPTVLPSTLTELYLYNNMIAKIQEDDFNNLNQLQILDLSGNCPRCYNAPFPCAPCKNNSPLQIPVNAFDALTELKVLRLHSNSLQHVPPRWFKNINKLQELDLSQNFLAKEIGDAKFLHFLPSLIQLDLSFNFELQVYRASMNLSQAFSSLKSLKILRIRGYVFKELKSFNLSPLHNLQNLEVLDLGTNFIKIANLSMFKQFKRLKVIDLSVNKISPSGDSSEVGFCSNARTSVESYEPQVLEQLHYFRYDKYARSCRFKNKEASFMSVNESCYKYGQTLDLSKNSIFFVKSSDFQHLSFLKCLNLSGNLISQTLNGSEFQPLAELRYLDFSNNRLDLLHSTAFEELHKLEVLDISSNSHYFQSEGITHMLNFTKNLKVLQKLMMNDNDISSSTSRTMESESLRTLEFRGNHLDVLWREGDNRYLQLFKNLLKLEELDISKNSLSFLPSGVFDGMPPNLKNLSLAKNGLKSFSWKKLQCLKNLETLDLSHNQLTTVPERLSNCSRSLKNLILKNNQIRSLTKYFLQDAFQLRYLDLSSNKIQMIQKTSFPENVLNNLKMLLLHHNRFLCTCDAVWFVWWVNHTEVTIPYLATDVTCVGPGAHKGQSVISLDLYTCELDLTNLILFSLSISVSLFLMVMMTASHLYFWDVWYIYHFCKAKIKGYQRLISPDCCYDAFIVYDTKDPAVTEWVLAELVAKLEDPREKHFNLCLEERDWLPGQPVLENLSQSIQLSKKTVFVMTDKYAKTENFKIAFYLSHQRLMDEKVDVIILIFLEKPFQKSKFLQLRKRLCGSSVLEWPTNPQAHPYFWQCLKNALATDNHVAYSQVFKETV
# [3] = target: Toll-like receptor 2 (Homo sapiens) (UniProt O60603); assay: Modulation of human TLR2 expressed in HEK293 cells co-transfected with MD2 and sAP assessed as induction of NF-kappaB activity by reporter gene assay; format: cell-based
# [4] = target: Nucleotide-binding oligomerization domain-containing protein 2 (Homo sapiens) (UniProt Q9HC29); assay: Modulation of NOD2 (unknown origin)
# Nucleotide-binding oligomerization domain-containing protein 2 (Homo sapiens), sequence (Q9HC29 whole entry, the tested form may be a part): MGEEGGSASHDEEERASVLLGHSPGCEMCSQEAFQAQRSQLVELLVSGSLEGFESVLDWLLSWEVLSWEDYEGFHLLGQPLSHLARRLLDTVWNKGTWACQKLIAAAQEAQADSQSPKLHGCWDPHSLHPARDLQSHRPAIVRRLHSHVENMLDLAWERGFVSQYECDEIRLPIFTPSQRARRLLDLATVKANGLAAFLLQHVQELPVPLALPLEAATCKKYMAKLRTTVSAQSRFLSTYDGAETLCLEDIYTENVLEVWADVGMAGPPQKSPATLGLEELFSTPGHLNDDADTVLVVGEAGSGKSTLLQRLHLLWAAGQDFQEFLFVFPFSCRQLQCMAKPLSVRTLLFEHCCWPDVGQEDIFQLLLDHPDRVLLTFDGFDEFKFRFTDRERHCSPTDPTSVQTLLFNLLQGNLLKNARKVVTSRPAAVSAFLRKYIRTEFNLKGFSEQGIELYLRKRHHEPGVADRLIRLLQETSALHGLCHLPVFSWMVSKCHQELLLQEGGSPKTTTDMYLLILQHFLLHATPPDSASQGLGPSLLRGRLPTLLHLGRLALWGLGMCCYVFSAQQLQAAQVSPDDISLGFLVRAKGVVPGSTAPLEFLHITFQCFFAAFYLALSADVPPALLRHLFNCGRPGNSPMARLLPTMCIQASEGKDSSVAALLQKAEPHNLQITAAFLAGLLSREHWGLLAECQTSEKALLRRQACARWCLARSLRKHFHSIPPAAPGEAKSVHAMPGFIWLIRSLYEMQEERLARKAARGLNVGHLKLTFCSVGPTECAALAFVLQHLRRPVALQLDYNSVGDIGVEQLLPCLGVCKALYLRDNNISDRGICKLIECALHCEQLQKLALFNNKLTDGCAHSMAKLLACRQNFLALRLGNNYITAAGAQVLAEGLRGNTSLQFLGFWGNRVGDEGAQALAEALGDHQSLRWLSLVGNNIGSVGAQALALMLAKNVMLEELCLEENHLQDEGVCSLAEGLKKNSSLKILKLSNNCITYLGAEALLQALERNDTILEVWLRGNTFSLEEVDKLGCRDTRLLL
# Toll-like receptor 2 (Homo sapiens), sequence (O60603 whole entry, the tested form may be a part): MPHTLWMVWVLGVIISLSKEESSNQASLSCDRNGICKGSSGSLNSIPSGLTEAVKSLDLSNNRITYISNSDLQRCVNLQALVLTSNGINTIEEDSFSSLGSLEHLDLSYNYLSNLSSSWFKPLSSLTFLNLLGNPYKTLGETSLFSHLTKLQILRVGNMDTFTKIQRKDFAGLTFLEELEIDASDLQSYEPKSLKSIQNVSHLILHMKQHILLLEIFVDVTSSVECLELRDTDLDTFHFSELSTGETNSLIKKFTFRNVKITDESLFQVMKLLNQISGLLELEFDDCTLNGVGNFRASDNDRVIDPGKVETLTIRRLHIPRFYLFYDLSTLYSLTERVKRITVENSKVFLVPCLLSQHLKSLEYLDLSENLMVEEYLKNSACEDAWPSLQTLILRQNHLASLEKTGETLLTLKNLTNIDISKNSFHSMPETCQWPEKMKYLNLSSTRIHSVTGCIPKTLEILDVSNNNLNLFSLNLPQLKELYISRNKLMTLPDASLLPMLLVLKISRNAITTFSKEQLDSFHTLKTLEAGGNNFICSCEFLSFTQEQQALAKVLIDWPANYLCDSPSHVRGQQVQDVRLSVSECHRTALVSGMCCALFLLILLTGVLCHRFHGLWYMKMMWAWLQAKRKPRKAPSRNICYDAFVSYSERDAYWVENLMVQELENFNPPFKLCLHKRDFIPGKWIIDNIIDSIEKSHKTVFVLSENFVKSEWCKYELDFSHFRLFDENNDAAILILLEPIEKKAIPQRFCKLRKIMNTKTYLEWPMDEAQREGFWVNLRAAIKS
Structure (SMILES),Activity [1],Activity [2],Activity [3],Activity [4]
CCCCc1cc2c(nc(N)c3ccccc32)o1,inactive,inactive,inactive,–
NCCc1cc2c(o1)c(N)nc1ccccc12,Active,Active,Active,Active
